Measured values reported in ChEMBL document CHEMBL1201861, “Genomics of Drug Sensitity in Cancer screening data, Wellcome Trust Sanger Institute”.

Legend:
Test in all cases: cells
UACC-893 = format: functional, cell-based, Homo sapiens; conditions: Homo sapiens, UACC-893
Description: SANGER: Inhibition of human UACC-893 cell growth in a cell viability assay.

NCI-H1395 = format: functional, cell-based, Homo sapiens; conditions: Homo sapiens, NCI-H1395;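 also: cell viability assay read-out quantifying reduced proliferation of human NCI-H1395 cells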
Description: SANGER: Inhibition of human NCI-H1395 cell growth in a cell viability assay.

HEC-1 = format: functional, cell-based, Homo sapiens; conditions: Homo sapiens, HEC-1;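 also: growth inhibition of the cell line, read out with a cell viability assay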
Description: SANGER: Inhibition of human HEC-1 cell growth in a cell viability assay.

NCI-H1563 = format: functional, cell-based, Homo sapiens; conditions: Homo sapiens, NCI-H1563;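 also: growth inhibition of human NCI-H1563 cells, read out with a cell viability assay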
Description: SANGER: Inhibition of human NCI-H1563 cell growth in a cell viability assay.

BXPC-3 = format: functional, cell-based, Homo sapiens; conditions: Homo sapiens, BXPC-3;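 also: growth inhibition of human BxPC-3 cells, read out by a cell viability assay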
Description: SANGER: Inhibition of human BxPC-3 cell growth in a cell viability assay.

LB373-MEL-D = format: functional, cell-based, Homo sapiens; conditions: Homo sapiens, LB373-MEL-D;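 also: growth inhibition of the cell line, read out in a cell viability assay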
Description: SANGER: Inhibition of human LB373-MEL-D cell growth in a cell viability assay.

KALS-1 = format: functional, cell-based, Homo sapiens; conditions: Homo sapiens, KALS-1;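 also: growth inhibition of KALS-1 cells, determined with a cell viability assay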
KYSE-520 cell line = format: functional, cell-based, Homo sapiens; conditions: Homo sapiens, KYSE-520;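 also: growth inhibition of human KYSE-520 cells, read out with a viability assay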
Description: SANGER: Inhibition of human KYSE-520 cell growth in a cell viability assay.

NCI-H2087 = format: functional, cell-based, Homo sapiens; conditions: Homo sapiens, NCI-H2087;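 also: growth inhibition determined with a cell viability readout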
Description: SANGER: Inhibition of human NCI-H2087 cell growth in a cell viability assay.

A101D = format: functional, cell-based, Homo sapiens; conditions: Homo sapiens, A101D;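 also: growth inhibition of the cell line, measured with a viability assay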
Description: SANGER: Inhibition of human A101D cell growth in a cell viability assay.

SK-MEL-24 = format: functional, cell-based; conditions: Homo sapiens;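 also: growth inhibition read out by a cell viability assay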
Description: SANGER: Inhibition of human SK-MEL-24 cell growth in a cell viability assay.

NCI-H1838 = format: functional, cell-based, Homo sapiens; conditions: Homo sapiens, NCI-H1838;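 also: growth inhibition of NCI-H1838 cells, determined with a cell viability readout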
Description: SANGER: Inhibition of human NCI-H1838 cell growth in a cell viability assay.

SAS = format: functional, cell-based, Homo sapiens; conditions: Homo sapiens, SAS;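 also: growth inhibition of SAS cells, read out with a cell viability assay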
CTB-1 = format: functional, cell-based; conditions: Homo sapiens
Description: SANGER: Inhibition of human CTB-1 cell growth in a cell viability assay.

SW1783 = format: functional, cell-based; conditions: Homo sapiens;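 also: cell growth inhibition measured with a viability assay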
Description: SANGER: Inhibition of human SW1783 cell growth in a cell viability assay.

MG-63 = format: functional, cell-based, Homo sapiens; conditions: Homo sapiens, MG-63;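 also: growth inhibition of human MG-63 cells, read out with a cell viability assay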
Description: SANGER: Inhibition of human MG-63 cell growth in a cell viability assay.

OS-RC-2 = format: functional, cell-based, Homo sapiens; conditions: Homo sapiens, OS-RC-2;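 also: growth inhibition of human OS-RC-2 cells, measured by a cell viability assay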
Description: SANGER: Inhibition of human OS-RC-2 cell growth in a cell viability assay.

CTV-1 = format: functional, cell-based; conditions: Homo sapiens;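 also: growth inhibition of the cell line, read out with a cell viability assay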
Description: SANGER: Inhibition of human CTV-1 cell growth in a cell viability assay.

BHY = format: functional, cell-based, Homo sapiens; conditions: Homo sapiens, BHY;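 also: cell growth inhibition read out by a viability assay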
D-263MG = format: functional, cell-based, Homo sapiens; conditions: Homo sapiens, D-263MG
Description: SANGER: Inhibition of human D-263MG cell growth in a cell viability assay.

NB69 = format: functional, cell-based, Homo sapiens; conditions: Homo sapiens, NB69;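 also: growth inhibition of NB69 cells, determined by a cell viability assay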
Description: SANGER: Inhibition of human NB69 cell growth in a cell viability assay.

SW948 = format: functional, cell-based, Homo sapiens; conditions: Homo sapiens, SW948;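 also: growth inhibition of SW948 cells, read out with a cell viability assay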
Description: SANGER: Inhibition of human SW948 cell growth in a cell viability assay.

Lu-65 = format: functional, cell-based; conditions: Homo sapiens;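 also: growth inhibition of Lu-65 cancer cells, read out by a cell viability assay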
Description: SANGER: Inhibition of human LU-65 cell growth in a cell viability assay.

G-401 = format: functional, cell-based, Homo sapiens; conditions: Homo sapiens, G-401
Description: SANGER: Inhibition of human G-401 cell growth in a cell viability assay.

SW626 = format: functional, cell-based, Homo sapiens; conditions: Homo sapiens, SW626;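 also: growth inhibition of SW626 cells, measured with a cell viability assay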
Description: SANGER: Inhibition of human SW626 cell growth in a cell viability assay.

NCI-H2122 = format: functional, cell-based, Homo sapiens; conditions: Homo sapiens, NCI-H2122;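 also: growth inhibition of the cells, read out with a cell viability assay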
Description: SANGER: Inhibition of human NCI-H2122 cell growth in a cell viability assay.

YKG-1 = format: functional, cell-based, Homo sapiens; conditions: Homo sapiens, YKG-1;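 also: cell growth inhibition, read out with a viability assay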
Description: SANGER: Inhibition of human YKG-1 cell growth in a cell viability assay.

5637 = format: functional, cell-based, Homo sapiens; conditions: Homo sapiens
Description: SANGER: Inhibition of human 5637 cell growth in a cell viability assay.

IA-LM = format: functional, cell-based, Homo sapiens; conditions: Homo sapiens, IA-LM;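 also: cell viability assay measuring growth inhibition of human IA-LM cells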
Description: SANGER: Inhibition of human IA-LM cell growth in a cell viability assay.

ALL-PO = format: functional, cell-based; conditions: Homo sapiens;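 also: growth inhibition of ALL-PO cells, read out by a cell viability assay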
Description: SANGER: Inhibition of human ALL-PO cell growth in a cell viability assay.

NB13 = format: functional, cell-based, Homo sapiens; conditions: Homo sapiens, NB13;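 also: cell viability readout measuring growth inhibition of human NB13 cells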
Description: SANGER: Inhibition of human NB13 cell growth in a cell viability assay.

DMS-114 = format: functional, cell-based, Homo sapiens; conditions: Homo sapiens, DMS-114
NEC8 = format: functional, cell-based, Homo sapiens; conditions: Homo sapiens, NEC8;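 also: growth inhibition of human NEC8 cells, read out by a cell viability assay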
Description: SANGER: Inhibition of human NEC8 cell growth in a cell viability assay.

NB12 = format: functional, cell-based, Homo sapiens; conditions: Homo sapiens, NB12;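 also: growth inhibition of human NB12 cells, read out by a cell viability assay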
Description: SANGER: Inhibition of human NB12 cell growth in a cell viability assay.

LAMA-84 = format: functional, cell-based; conditions: Homo sapiens;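 also: growth inhibition of LAMA-84 cells, read out with a cell viability assay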
Description: SANGER: Inhibition of human LAMA-84 cell growth in a cell viability assay.

SK-NEP-1 = format: functional, cell-based; conditions: Homo sapiens;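 also: growth inhibition of human SK-NEP-1 cells, read out by a cell viability assay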
Description: SANGER: Inhibition of human SK-NEP-1 cell growth in a cell viability assay.

Becker = format: functional, cell-based, Homo sapiens; conditions: Homo sapiens, Becker;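 also: growth inhibition of Becker cells, read out with a cell viability assay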
Description: SANGER: Inhibition of human Becker cell growth in a cell viability assay.

Ca-Ski = format: functional, cell-based; conditions: Homo sapiens;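 also: cell viability assay measuring inhibition of Ca-Ski cell growth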
Description: SANGER: Inhibition of human Ca-Ski cell growth in a cell viability assay.

NCI-H2126 = format: functional, cell-based, Homo sapiens; conditions: Homo sapiens, NCI-H2126;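 also: growth inhibition of the cancer cell line, determined with a cell viability readout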
Description: SANGER: Inhibition of human NCI-H2126 cell growth in a cell viability assay.

MCF7 = format: functional, cell-based, Homo sapiens; conditions: Homo sapiens, MCF7;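 also: growth inhibition of human MCF7 cells, read out with a cell viability assay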
Description: SANGER: Inhibition of human MCF7 cell growth in a cell viability assay.

BT-20 = format: functional, cell-based, Homo sapiens; conditions: Homo sapiens, BT-20;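 also: cell viability assay measuring suppression of growth in human BT-20 cells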
Description: SANGER: Inhibition of human BT-20 cell growth in a cell viability assay.

HCC1806 = format: functional, cell-based, Homo sapiens; conditions: Homo sapiens, HCC1806;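 also: growth inhibition of the cancer cell line, determined with a cell viability assay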
Description: SANGER: Inhibition of human HCC1806 cell growth in a cell viability assay.

HT1197 = format: functional, cell-based, Homo sapiens, HT-1197; conditions: Homo sapiens, HT1197
Description: SANGER: Inhibition of human HT-1197 cell growth in a cell viability assay.

SW 962 = format: functional, cell-based, Homo sapiens; conditions: Homo sapiens, SW 962;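 also: growth inhibition of human SW962 cells, read out by a cell viability assay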
Description: SANGER: Inhibition of human SW962 cell growth in a cell viability assay.

GCT = format: functional, cell-based, Homo sapiens; conditions: Homo sapiens, GCT;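 also: GCT cell line proliferation inhibition, read out with a cell viability assay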
Description: SANGER: Inhibition of human GCT cell growth in a cell viability assay.

LB2241-RCC = format: functional, cell-based, Homo sapiens; conditions: Homo sapiens, LB2241-RCC;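 also: cell viability assay measuring how strongly the cultured human renal carcinoma line is prevented from growing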
Description: SANGER: Inhibition of human LB2241-RCC cell growth in a cell viability assay.

HT = format: functional, cell-based; conditions: Homo sapiens
Description: SANGER: Inhibition of human HT cell growth in a cell viability assay.

ETK-1 = format: functional, cell-based, Homo sapiens; conditions: Homo sapiens, ETK-1;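 also: growth inhibition of human ETK-1 cells, read out with a cell viability assay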
Description: SANGER: Inhibition of human ETK-1 cell growth in a cell viability assay.

SW684 = format: functional, cell-based, Homo sapiens; conditions: Homo sapiens, SW684;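 also: growth inhibition of human SW684 cells, measured by a cell viability assay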
Description: SANGER: Inhibition of human SW684 cell growth in a cell viability assay.

SK-N-FI = format: functional, cell-based, Homo sapiens; conditions: Homo sapiens, SK-N-FI;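 also: cell viability assay measuring growth inhibition of human SK-N-FI cells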
Description: SANGER: Inhibition of human SK-N-FI cell growth in a cell viability assay.

SK-MEL-28 = format: functional, cell-based; conditions: Homo sapiens;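 also: growth inhibition of human SK-MEL-28 cells, read out with a cell viability assay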
Description: SANGER: Inhibition of human SK-MEL-28 cell growth in a cell viability assay.

KP-4 = format: functional, cell-based, Homo sapiens; conditions: Homo sapiens, KP-4; read-out: IC50;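 also: human KP-4 cells, with growth inhibition read out through a cell viability assay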
Description: SANGER: Inhibition of human KP-4 cell growth in a cell viability assay.

Structure (SMILES): C[C@]1(O)C[C@@H](c2nc(-c3ccc4ccc(-c5ccccc5)nc4c3)c3c(N)nccn32)C1 [LINSITINIB]
- IC50 (UACC-893): > 2.56 µM
- IC50 (NCI-H1395): > 2.56 µM
- IC50 (HEC-1): > 2.56 µM
- IC50 (NCI-H1563): > 2.56 µM
- IC50 (BXPC-3): > 2.56 µM
- IC50 (LB373-MEL-D): > 2.56 µM
- IC50 (KALS-1): > 2.56 µM
- IC50 (KYSE-520 cell line): > 2.56 µM
- IC50 (NCI-H2087): > 2.56 µM
- IC50 (A101D): > 2.56 µM
- IC50 (SK-MEL-24): > 2.56 µM
- IC50 (NCI-H1838): > 2.56 µM
- IC50 (SAS): > 2.56 µM
- IC50 (CTB-1): > 2.56 µM
- IC50 (SW1783): > 2.56 µM
- IC50 (MG-63): > 2.56 µM
- IC50 (OS-RC-2): > 2.56 µM
- IC50 (CTV-1): > 2.56 µM
- IC50 (BHY): > 2.56 µM
- IC50 (D-263MG): > 2.56 µM
- IC50 (NB69): 0.583 µM
- IC50 (SW948): > 2.56 µM
- IC50 (Lu-65): > 2.56 µM
- IC50 (G-401): 0.182 µM
- IC50 (SW626): > 2.56 µM
- IC50 (NCI-H2122): 0.233 µM
- IC50 (YKG-1): > 2.56 µM
- IC50 5637: > 2.56 µM
- IC50 (IA-LM): > 2.56 µM
- IC50 (ALL-PO): > 2.56 µM
- IC50 (NB13): > 2.56 µM
- IC50 (DMS-114): > 2.56 µM
- IC50 (NEC8): > 2.56 µM
- IC50 (NB12): > 2.56 µM
- IC50 (LAMA-84): > 2.56 µM
- IC50 (SK-NEP-1): 0.602 µM
- IC50 (Becker): > 2.56 µM
- IC50 (Ca-Ski): > 2.56 µM
- IC50 (NCI-H2126): > 2.56 µM
- IC50 (MCF7): > 2.56 µM
- IC50 (BT-20): > 2.56 µM
- IC50 (HCC1806): > 2.56 µM
- IC50 (HT1197): > 2.56 µM
- IC50 (SW 962): > 2.56 µM
- IC50 (GCT): > 2.56 µM
- IC50 (LB2241-RCC): > 2.56 µM
- IC50 (HT): > 2.56 µM
- IC50 (ETK-1): > 2.56 µM
- IC50 (SW684): > 2.56 µM
- IC50 (SK-N-FI): > 2.56 µM
- IC50 (SK-MEL-28): > 2.56 µM
- IC50 (KP-4): > 2.56 µM

Structure (SMILES): C=CCc1cccc(/C=N/NC(=O)CN2CCN(Cc3ccccc3)CC2)c1O [PAC-1]
- IC50 (UACC-893): > 2.56 µM
- IC50 (NCI-H1395): > 2.56 µM
- IC50 (HEC-1): > 2.56 µM
- IC50 (NCI-H1563): > 2.56 µM
- IC50 (BXPC-3): 2.09 µM
- IC50 (LB373-MEL-D): > 2.56 µM
- IC50 (KALS-1): > 2.56 µM
- IC50 (KYSE-520 cell line): > 2.56 µM
- IC50 (NCI-H2087): > 2.56 µM
- IC50 (A101D): > 2.56 µM
- IC50 (SK-MEL-24): > 2.56 µM
- IC50 (NCI-H1838): > 2.56 µM
- IC50 (SAS): > 2.56 µM
- IC50 (CTB-1): 1.44 µM
- IC50 (SW1783): > 2.56 µM
- IC50 (MG-63): > 2.56 µM
- IC50 (OS-RC-2): > 2.56 µM
- IC50 (CTV-1): 1.96 µM
- IC50 (BHY): > 2.56 µM
- IC50 (D-263MG): > 2.56 µM
- IC50 (NB69): > 2.56 µM
- IC50 (SW948): > 2.56 µM
- IC50 (Lu-65): > 2.56 µM
- IC50 (G-401): 1.01 µM
- IC50 (SW626): > 2.56 µM
- IC50 (NCI-H2122): > 2.56 µM
- IC50 (YKG-1): > 2.56 µM
- IC50 5637: > 2.56 µM
- IC50 (IA-LM): > 2.56 µM
- IC50 (ALL-PO): > 2.56 µM
- IC50 (NB13): > 2.56 µM
- IC50 (DMS-114): > 2.56 µM
- IC50 (NEC8): > 2.56 µM
- IC50 (NB12): > 2.56 µM
- IC50 (LAMA-84): > 2.56 µM
- IC50 (SK-NEP-1): > 2.56 µM
- IC50 (Becker): > 2.56 µM
- IC50 (Ca-Ski): > 2.56 µM
- IC50 (NCI-H2126): > 2.56 µM
- IC50 (MCF7): > 2.56 µM
- IC50 (BT-20): > 2.56 µM
- IC50 (HCC1806): > 2.56 µM
- IC50 (HT1197): > 2.56 µM
- IC50 (SW 962): > 2.56 µM
- IC50 (GCT): > 2.56 µM
- IC50 (LB2241-RCC): > 2.56 µM
- IC50 (HT): > 2.56 µM
- IC50 (ETK-1): 2.48 µM
- IC50 (SW684): > 2.56 µM
- IC50 (SK-N-FI): > 2.56 µM
- IC50 (SK-MEL-28): > 2.56 µM
- IC50 (KP-4): > 2.56 µM

Structure (SMILES): Cc1ccc(Nc2nccc(N(C)c3ccc4c(C)n(C)nc4c3)n2)cc1S(N)(=O)=O [PAZOPANIB]
- IC50 (UACC-893): > 8 µM
- IC50 (NCI-H1395): > 8 µM
- IC50 (HEC-1): > 8 µM
- IC50 (NCI-H1563): > 8 µM
- IC50 (BXPC-3): > 8 µM
- IC50 (LB373-MEL-D): > 8 µM
- IC50 (KALS-1): > 8 µM
- IC50 (KYSE-520 cell line): > 8 µM
- IC50 (NCI-H2087): > 8 µM
- IC50 (A101D): > 8 µM
- IC50 (SK-MEL-24): > 8 µM
- IC50 (NCI-H1838): > 8 µM
- IC50 (SAS): > 8 µM
- IC50 (CTB-1): > 8 µM
- IC50 (SW1783): > 8 µM
- IC50 (MG-63): 1 µM
- IC50 (OS-RC-2): > 8 µM
- IC50 (CTV-1): 6.21 µM
- IC50 (BHY): > 8 µM
- IC50 (D-263MG): > 8 µM
- IC50 (NB69): > 8 µM
- IC50 (SW948): > 8 µM
- IC50 (Lu-65): > 8 µM
- IC50 (G-401): 1.46 µM
- IC50 (SW626): > 8 µM
- IC50 (NCI-H2122): > 8 µM
- IC50 (YKG-1): > 8 µM
- IC50 5637: > 8 µM
- IC50 (IA-LM): 7.93 µM
- IC50 (ALL-PO): > 8 µM
- IC50 (NB13): > 8 µM
- IC50 (DMS-114): > 8 µM
- IC50 (NEC8): > 8 µM
- IC50 (NB12): > 8 µM
- IC50 (LAMA-84): > 8 µM
- IC50 (SK-NEP-1): > 8 µM
- IC50 (Becker): > 8 µM
- IC50 (Ca-Ski): > 8 µM
- IC50 (NCI-H2126): > 8 µM
- IC50 (MCF7): > 8 µM
- IC50 (BT-20): > 8 µM
- IC50 (HCC1806): > 8 µM
- IC50 (HT1197): > 8 µM
- IC50 (SW 962): > 8 µM
- IC50 (GCT): > 8 µM
- IC50 (LB2241-RCC): > 8 µM
- IC50 (HT): > 8 µM
- IC50 (ETK-1): > 8 µM
- IC50 (SW684): > 8 µM
- IC50 (SK-N-FI): > 8 µM
- IC50 (SK-MEL-28): > 8 µM
- IC50 (KP-4): > 8 µM
